Patent US20250059171A1 (Hoffmann-La Roche Inc., priority 2021, published 2025)

Key:
MERS-CoV 3CLpro = MERS-CoV 3CLpro (Middle East respiratory syndrome-related coronavirus, UniProt K9N7C7); assay: biochemical
SARS-CoV 3CLpro = SARS-CoV 3CLpro (Severe acute respiratory syndrome coronavirus, UniProt P0C6X7); assay: biochemical
SARS-CoV-2 3CLpro = SARS-CoV-2 3CLpro (Severe acute respiratory syndrome coronavirus 2, UniProt P0DTD1); assay: biochemical
HCoV-229E 3CLpro = HCoV-229E 3CLpro (Human coronavirus 229E, UniProt P0C6X1); assay: HCoV-229E 3CLpro inhibition assay (FRET); type: biochemical
Sequence of HCoV-229E 3CLpro (P0C6X1 2966-3267): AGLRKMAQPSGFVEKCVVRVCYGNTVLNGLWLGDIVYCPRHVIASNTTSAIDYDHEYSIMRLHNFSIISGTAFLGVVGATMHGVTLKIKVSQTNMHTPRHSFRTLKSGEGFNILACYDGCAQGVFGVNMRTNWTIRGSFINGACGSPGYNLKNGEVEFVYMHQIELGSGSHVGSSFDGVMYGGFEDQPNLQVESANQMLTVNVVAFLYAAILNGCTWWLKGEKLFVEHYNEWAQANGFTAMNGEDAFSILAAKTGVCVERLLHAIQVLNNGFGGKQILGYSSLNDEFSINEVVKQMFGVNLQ

Sequence of MERS-CoV 3CLpro (K9N7C7 3248-3553): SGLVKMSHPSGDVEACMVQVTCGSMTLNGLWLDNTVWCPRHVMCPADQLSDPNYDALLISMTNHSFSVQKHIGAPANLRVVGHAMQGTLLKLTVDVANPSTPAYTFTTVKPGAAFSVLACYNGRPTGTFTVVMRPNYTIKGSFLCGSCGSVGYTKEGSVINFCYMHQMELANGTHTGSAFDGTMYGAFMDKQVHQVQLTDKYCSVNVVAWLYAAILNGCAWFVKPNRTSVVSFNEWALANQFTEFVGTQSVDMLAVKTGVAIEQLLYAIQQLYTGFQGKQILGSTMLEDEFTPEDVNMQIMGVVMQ

In the case of `CC(C)(C)[C@H](NC(=O)C1CC(F)(F)C1)C(=O)N1C[C@@H]2CCC[C@@H]2[C@H]1C(=O)NN(C[C@@H]1CCNC1=O)C(=O)[C@H](F)Cl` [Example 98, N-[(1S)-1-[(3S,3aS,6aR)-3-[[[(2R)-2-chloro-2-fluoro-acetyl]-[[(3S)-2-oxopyrrolidin-3-yl]methyl]amino]carbamoyl]-3,3a,4,5,6,6a-hexahydro-1H-cyclopenta[c]pyrrole-2-carbonyl]-2,2-dimethyl-propyl]-3,3-difluoro-cyclobutanecarboxamide], the IC50 (MERS-CoV 3CLpro) is reported as 0.059 µM, the IC50 (SARS-CoV 3CLpro) is reported as 0.011 µM and the IC50 (SARS-CoV-2 3CLpro) is reported as 0.009 µM. The IC50 (HCoV-229E 3CLpro) was 0.022 µM.
Molecule `CC1(C)[C@@H]2[C@@H](C(=O)NN(C[C@@H]3CCNC3=O)C(=O)[C@H](F)Cl)N(C(=O)c3cc(C(F)(F)F)cc(C(F)(F)F)c3)C[C@@H]21` [Example 177, (1R,2S,5S)-3-[3,5-bis(trifluoromethyl)benzoyl]-N′-[(2R)-2-chloro-2-fluoro-acetyl]-6,6-dimethyl-N′—[[(3S)-2-oxopyrrolidin-3-yl]methyl]-3-azabicyclo[3.1.0]hexane-2-carbohydrazide] has an IC50 (MERS-CoV 3CLpro) of 0.278 µM, an IC50 (SARS-CoV 3CLpro) of 0.232 µM and an IC50 (SARS-CoV-2 3CLpro) of 0.147 µM. For the same molecule, the IC50 (HCoV-229E 3CLpro) was 0.138 µM.
For `CC[C@H](C)[C@H](NC(=O)C1(C)CC1)C(=O)N1C[C@H]2[C@@H]([C@H]1C(=O)NN(C[C@@H]1CCNC1=O)C(=O)[C@H](F)Cl)C2(C)C` [Example 60, N-[(1S,2S)-1-[(1R,2S,5S)-2-[[[(2R)-2-chloro-2-fluoro-acetyl]-[[(3S)-2-oxopyrrolidin-3-yl]methyl]amino]carbamoyl]-6,6-dimethyl-3-azabicyclo[3.1.0]hexane-3-carbonyl]-2-methyl-butyl]-1-methyl-cyclopropanecarboxamide], the IC50 (MERS-CoV 3CLpro) was 0.047 µM, the IC50 (SARS-CoV 3CLpro) was 0.009 µM and the IC50 (SARS-CoV-2 3CLpro) was 0.01 µM. The IC50 (HCoV-229E 3CLpro) was 0.019 µM.
For `CC(=O)N[C@H](C(=O)N1C[C@@H]2CCC[C@@H]2[C@H]1C(=O)NN(C[C@@H]1CCNC1=O)C(=O)[C@H](F)Cl)C(C)(C)C` [Example 29, N-[(1S)-1-[(3S,3aS,6aR)-3-[[[(2R)-2-chloro-2-fluoro-acetyl]-[[(3S)-2-oxopyrrolidin-3-yl]methyl]amino]carbamoyl]-3,3a,4,5,6,6a-hexahydro-1H-cyclopenta[c]pyrrole-2-carbonyl]-2,2-dimethyl-propyl]acetamide], the IC50 (MERS-CoV 3CLpro) was 0.068 µM, the IC50 (SARS-CoV 3CLpro) was 0.011 µM and the IC50 (SARS-CoV-2 3CLpro) was 0.01 µM. For the same molecule, the IC50 (HCoV-229E 3CLpro) was 0.028 µM.
`CCC(CC)[C@H](NC(=O)C(F)F)C(=O)N1C[C@H]2[C@@H]([C@H]1C(=O)NN(C[C@@H]1CCNC1=O)C(=O)[C@H](F)Cl)C2(C)C` [Example 131, N-[(1S)-1-[(1R,2S,5S)-2-[[[(2R)-2-chloro-2-fluoro-acetyl]-[[(3S)-2-oxopyrrolidin-3-yl]methyl]amino]carbamoyl]-6,6-dimethyl-3-azabicyclo[3.1.0]hexane-3-carbonyl]-2-ethyl-butyl]-2,2-difluoro-acetamide] showed an IC50 (MERS-CoV 3CLpro) of 0.158 µM, an IC50 (SARS-CoV 3CLpro) of 0.014 µM and an IC50 (SARS-CoV-2 3CLpro) of 0.01 µM. For the same molecule, the IC50 (HCoV-229E 3CLpro) was 0.026 µM.
`CC[C@H](C)[C@H](NC(=O)C1(F)CCC1)C(=O)N1C[C@H]2[C@@H]([C@H]1C(=O)NN(C[C@@H]1CCNC1=O)C(=O)[C@H](F)Cl)C2(C)C` [Example 105, N-[(1S,2S)-1-[(1R,2S,5S)-2-[[[(2R)-2-chloro-2-fluoro-acetyl]-[[(3S)-2-oxopyrrolidin-3-yl]methyl]amino]carbamoyl]-6,6-dimethyl-3-azabicyclo[3.1.0]hexane-3-carbonyl]-2-methyl-butyl]-1-fluoro-cyclobutanecarboxamide] was tested, and the IC50 (MERS-CoV 3CLpro) was 0.071 µM, the IC50 (SARS-CoV 3CLpro) was 0.011 µM and the IC50 (SARS-CoV-2 3CLpro) was 0.008 µM. It also gave an IC50 (HCoV-229E 3CLpro) of 0.027 µM.
